Results from patent US8846947B2, “Benzimidazoles and related analogs as sirtuin modulators” (GlaxoSmithKline LLC, priority 2008, dated 2014).
Where two headings read alike, the source gives them in different places.

Target: T1, SIRT1 (Homo sapiens, UniProt Q96EB6)
T1 sequence (Q96EB6 1-747): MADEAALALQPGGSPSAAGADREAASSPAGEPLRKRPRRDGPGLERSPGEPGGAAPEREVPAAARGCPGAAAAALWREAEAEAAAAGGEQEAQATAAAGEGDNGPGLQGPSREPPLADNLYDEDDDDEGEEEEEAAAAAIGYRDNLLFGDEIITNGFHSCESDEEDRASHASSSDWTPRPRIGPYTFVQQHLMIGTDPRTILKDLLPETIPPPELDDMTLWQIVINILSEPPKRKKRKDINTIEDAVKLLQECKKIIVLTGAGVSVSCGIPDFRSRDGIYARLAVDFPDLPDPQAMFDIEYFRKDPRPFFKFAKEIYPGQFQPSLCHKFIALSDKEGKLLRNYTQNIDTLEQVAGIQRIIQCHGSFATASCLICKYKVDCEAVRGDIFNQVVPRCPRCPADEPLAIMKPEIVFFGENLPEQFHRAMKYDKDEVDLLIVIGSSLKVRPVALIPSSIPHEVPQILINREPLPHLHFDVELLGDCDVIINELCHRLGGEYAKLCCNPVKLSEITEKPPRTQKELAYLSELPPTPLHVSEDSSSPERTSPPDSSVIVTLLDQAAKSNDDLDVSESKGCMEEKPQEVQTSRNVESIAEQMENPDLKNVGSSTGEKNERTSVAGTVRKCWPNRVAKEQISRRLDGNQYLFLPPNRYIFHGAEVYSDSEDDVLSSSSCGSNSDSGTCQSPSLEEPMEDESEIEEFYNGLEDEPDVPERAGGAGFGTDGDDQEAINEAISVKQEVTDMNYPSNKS
Assay: Mass spectrometry based SIRT1 deacetylase activation assay (acetylated p53-derived peptide substrate)
Format: biochemical

[1] = 0.5 μM peptide substrate, 120 μM βNAD+, 10 nM SIRT1, 25 min at 25° C.
[2] = 0.5 μM peptide substrate, 120 μM βNAD+, 10 nM SIRT1, 25 min at 25° C., read-out: EC1.5
[3] = 0.5 μM peptide substrate, 120 μM βNAD+, 10 nM SIRT1, 25 minutes at 25° C.

Row | EC1.5 [3] | Fold Act. (percent maximum fold activation) [3] | EC1.5 | Fold Act. (percent maximum fold activation) | SMILES | also measured
1 | A (EC1.5<1.0 uM) | A (Fold activation >200%) | – | – | Cc1cnc(NC(=O)c2cc(F)cc3nc(-c4ccc(Cl)cc4C(F)F)[nH]c23)s1 [Compound 822] | –
2 | A (EC1.5<1.0 uM) | A (Fold activation >200%) | – | – | O=C(Nc1cccc(OC[C@@H](O)CO)c1)c1cccc2[nH]c(-c3cc(F)ccc3C(F)F)nc12 [Compound 720] | –
3 | A (EC1.5<1.0 uM) | A (Fold activation >200%) | – | – | O=C(Nc1cccc(CN2CCOCC2)n1)c1cccc2[nH]c(-c3ccc(Cl)cc3C(F)(F)F)nc12 [Compound 675] | –
4 | A (EC1.5<1.0 uM) | A (Fold activation >200%) | – | – | O=C(Nc1ccccn1)c1cncc2[nH]c(-c3ccc(OC[C@@H](O)CO)cc3C(F)F)nc12 [Compound 773] | –
5 | A (EC1.5<1.0 uM) | A (Fold activation >200%) | – | – | Cc1cnc(NC(=O)c2cncc3nc(-c4ccc(OC[C@H](O)CO)cc4C(F)F)[nH]c23)s1 [Compound 809] | –
6 | A (EC1.5<1.0 uM) | A (Fold activation >200%) | – | – | O=C(Nc1ccc(OC[C@@H](O)CO)cc1)c1cccc2[nH]c(-c3cccc(N4CCCC4)c3)nc12 [Compound 788] | –
7 | C (EC1.5 >25 uM) | B (Fold Activation <200%) | – | – | O=C(Nc1nc(CN2CCOCC2)cs1)c1cccc2[nH]c(-c3cccnc3)nc12 [Compound 795] | –
8 | B (EC1.5 1-25 uM) | A (Fold activation >200%) | – | – | O=C(Nc1ccccn1)c1cncc2[nH]c(-c3cc(F)ccc3C(F)(F)F)nc12 [Compound 654] | –
9 | A (EC1.5<1.0 uM) | A (Fold activation >200%) | – | – | O=C(Nc1ccccn1)c1cncc2nc(-c3ccc(OC[C@H](O)CO)cc3C(F)F)[nH]c12 [Compound 810] | –
10 | A (EC1.5<1.0 uM) | A (Fold activation >200%) | – | – | O=C(Nc1cccnn1)c1cncc2[nH]c(-c3cc(F)ccc3C(F)(F)F)nc12 [Compound 656] | –
11 | B (EC1.5 1-25 uM) | A (Fold activation >200%) | – | – | O=C(Nc1nc(CN2CCOCC2)cs1)c1cccc2[nH]c(-c3cc(F)cc(F)c3)nc12 [Compound 820] | –
12 | A (EC1.5<1.0 uM) | A (Fold activation >200%) | – | – | O=C(Nc1cccc(OC2CCNCC2)c1)c1cccc2[nH]c(-c3ccc(Cl)cc3C(F)(F)F)nc12 [Compound 598] | –
13 | A (EC1.5<1.0 uM) | A (Fold activation >200%) | – | – | O=C(Nc1nc(CN2CCOCC2)cs1)c1cccc2[nH]c(-c3ccccc3C(F)F)nc12 [Compound 845] | –
14 | A (EC1.5<1.0 uM) | A (Fold activation >200%) | – | – | O=C(Nc1nccs1)c1cncc2[nH]c(-c3ccc(OC[C@@H](O)CO)cc3C(F)(F)F)nc12 [Compound 758] | –
15 | A (EC1.5<1.0 uM) | A (Fold activation >200%) | – | – | O=C(Nc1nc(CN2CCOCC2)cs1)c1cccc2[nH]c(-c3cc(F)ccc3C(F)(F)F)nc12 [Compound 701] | –
16 | A (EC1.5<1.0 uM) | A (Fold activation >200%) | – | – | Cc1cnc(NC(=O)c2cncc3[nH]c(-c4cc(F)ccc4C(F)(F)F)nc23)s1 [Compound 657] | –
17 | B (EC1.5 1-25 uM) | A (Fold activation >200%) | – | – | O=C(Nc1ccccn1)c1cccc2[nH]c(-c3ccc(N4CCCC4)cc3C(F)(F)F)nc12 [Compound 605] | –
18 | A (EC1.5<1.0 uM) | A (Fold activation >200%) | – | – | O=C(Nc1nccs1)c1cc(N2CCOCC2)cc2[nH]c(-c3ccccc3C(F)(F)F)nc12 [Compound 628, 6-morpholino-N-(thiazol-2-yl)-2-(2-(trifluoromethyl)phenyl)-1H-benzo[d]imidazole-4-carboxamide] | –

More lines, now with the values behind:

Row | SMILES | EC1.5 [3] | Fold Act. (percent maximum fold activation) [3] | EC1.5 | Fold Act. (percent maximum fold activation) | also measured
19 | Cc1cc(NC(=O)c2cccc3[nH]c(-c4ccnn4-c4ccccc4)nc23)n(C)n1 [Compound 423] | – | – | – | – | Fold Act. (percent maximum fold activation) [1]: A (Fold activation >200%); EC1.5 [2]: 1000 to 25000 nM
20 | O=C(Nc1cccnc1)c1cccc2[nH]c(-c3cccc(CN4CCOCC4)c3)nc12 [Compound 350] | – | – | B (EC1.5 1-25 uM) | A (Fold activation >200%) | –
21 | O=C(Nc1ccncc1)c1cccc2[nH]c(-c3ccnn3-c3ccccc3)nc12 [Compound 310] | – | – | A (EC1.5<1.0 uM) | A (Fold activation >200%) | –
22 | Cc1cc(NC(=O)c2cccc3[nH]c(-c4cc(F)ccc4C(F)(F)F)nc23)no1 [Compound 455] | – | – | – | – | Fold Act. (percent maximum fold activation) [1]: A (Fold activation >200%); EC1.5 [2]: < 1000 nM
23 | Cc1csc(NC(=O)c2cccc3[nH]c(-c4cccc(C(F)(F)F)c4)nc23)n1 [Compound 206] | – | – | B (EC1.5 1-25 uM) | A (Fold activation >200%) | –
24 | Cc1nc(-c2ccccc2)c(-c2nc3c(C(=O)Nc4nccs4)cccc3[nH]2)s1 [Compound 368] | – | – | A (EC1.5<1.0 uM) | A (Fold activation >200%) | –
25 | O=C(Nc1nccs1)c1cccc2[nH]c(-c3ccnc(N4CCOCC4)c3)nc12 [Compound 269] | – | – | A (EC1.5<1.0 uM) | A (Fold activation >200%) | –
26 | O=C(NCc1cccnc1)c1cccc2[nH]c(-c3cccc(C(F)(F)F)c3)nc12 [Compound 270] | – | – | C (EC1.5 >25 uM) | B (Fold Activation <200%) | –
27 | O=C(Nc1cccc2[nH]c(-c3cccc(C(F)(F)F)c3)nc12)c1cccnc1 [Compound 334] | – | – | B (EC1.5 1-25 uM) | A (Fold activation >200%) | –
28 | O=C(Nc1nccs1)c1cccc2[nH]c(-c3cc(Cl)ccc3C(F)(F)F)nc12 [Compound 258] | – | – | B (EC1.5 1-25 uM) | A (Fold activation >200%) | –
29 | O=C(Nc1nccs1)c1cccc2[nH]c(-c3ccc(OCCN4CCOCC4)cc3)nc12 [Compound 339] | – | – | A (EC1.5<1.0 uM) | A (Fold activation >200%) | –
30 | Cc1cc(C)nc(NC(=O)c2cccc3[nH]c(-c4cccc(N5CCOCC5)c4)nc23)c1 [Compound 398] | – | – | – | – | Fold Act. (percent maximum fold activation) [1]: A (Fold activation >200%); EC1.5 [2]: < 1000 nM
31 | O=C(Nc1nccs1)c1cccc2[nH]c(-c3ccc(-c4ccccc4)cc3)nc12 [Compound 223] | – | – | C (EC1.5 >25 uM) | B (Fold Activation <200%) | –
32 | O=C1COc2ccc(-c3nc4c(C(=O)Nc5nccs5)cccc4[nH]3)cc2N1 [Compound 424] | – | – | – | – | Fold Act. (percent maximum fold activation) [1]: B (Fold Activation <200%); EC1.5 [2]: < 1000 nM
33 | Cc1cnc(NC(=O)c2cccc3[nH]c(-c4cccc5c4OC(F)(F)O5)nc23)s1 [Compound 532] | – | – | – | – | Fold Act. (percent maximum fold activation) [1]: A (Fold activation >200%); EC1.5 [2]: < 1000 nM
34 | O=C(NC1CCOC1=O)c1cccc2[nH]c(-c3ccc(F)cc3C(F)(F)F)nc12 (centres unmarked) [Compound 374] | – | – | C (EC1.5 >25 uM) | B (Fold Activation <200%) | –
35 | O=C(Nc1ccccn1)c1cccc2[nH]c(-c3ccccc3C(F)F)nc12 [Compound 516] | – | – | – | – | Fold Act. (percent maximum fold activation) [1]: A (Fold activation >200%); EC1.5 [2]: < 1000 nM
36 | O=C(Nc1nccs1)c1cccc2[nH]c(-c3cc(F)ccc3OCCN3CCOCC3)nc12 [Compound 583] | – | – | – | – | Fold Act. (percent maximum fold activation) [1]: A (Fold activation >200%); EC1.5 [2]: 1000 to 25000 nM
37 | O=C(Nc1nccs1)c1cccc2[nH]c(-c3cccc4c3OC(F)(F)O4)nc12 [Compound 427] | – | – | – | – | Fold Act. (percent maximum fold activation) [1]: A (Fold activation >200%); EC1.5 [2]: < 1000 nM
38 | CC(C)(C)c1cccc(-c2nc3c(C(=O)Nc4nccs4)cccc3[nH]2)c1OCCN1CCOCC1 [Compound 587] | – | – | – | – | Fold Act. (percent maximum fold activation) [1]: B (Fold Activation <200%); EC1.5 [2]: 1000 to 25000 nM
39 | O=C(Nc1nccs1)c1cccc2[nH]c(-c3cc(Cl)ccc3OCCN3CCOCC3)nc12 [Compound 501] | – | – | – | – | Fold Act. (percent maximum fold activation) [1]: A (Fold activation >200%); EC1.5 [2]: < 1000 nM
40 | O=C(Nc1cccnc1)c1cccc2[nH]c(-c3ccnc(N4CCCC4)c3)nc12 [Compound 568] | – | – | – | – | Fold Act. (percent maximum fold activation) [1]: B (Fold Activation <200%); EC1.5 [2]: > 25000 nM
41 | O=C1COc2ccc(-c3nc4c(C(=O)Nc5cccnc5)cccc4[nH]3)cc2N1 [Compound 533] | – | – | – | – | Fold Act. (percent maximum fold activation) [1]: B (Fold Activation <200%); EC1.5 [2]: > 25000 nM
42 | O=C(Nc1cnccn1)c1cccc2[nH]c(-c3cccc(C(F)(F)F)c3)nc12 [Compound 203] | – | – | A (EC1.5<1.0 uM) | A (Fold activation >200%) | –
43 | O=C(Nc1cccnc1)c1cccc2[nH]c(-c3cccc(N4CCOCC4)c3)nc12 [Compound 288] | – | – | A (EC1.5<1.0 uM) | A (Fold activation >200%) | –
